pIC50: −log10 of the molar value. Calls of active or inactive are those of the source. The rule behind the calls is not given here.
Test system: L. donovani-infected THP-1 macrophages, intracellular amastigote imaging
Assay: antileishmanial activity in infected THP-1 macrophages – imaging, THP-1 host macrophages, host toxicity (AID 1159564)
[1] = measured here: THP-1 host cell toxicity
[2] = measured here: amastigotes per macrophage

Clc1ccc(CN2CCN(C3=NCCN3)CC2)cc1Cl
IC50: > 50 µM (inactive) | pIC50 [1]: < 4.30 | pIC50 [2]: < 4.30

N#Cc1ccc(S(=O)(=O)N2CCN(Cc3cccc(-c4ccncc4)c3)CC2)cc1
IC50: > 50 µM (inactive) | pIC50 [1]: < 4.30 | pIC50 [2]: 5.89

Cc1cc(C)c(C#N)c(SCC(=O)c2ccc3c(c2)OCO3)n1
IC50: > 50 µM (inactive) | pIC50 [1]: < 4.30 | pIC50 [2]: < 4.30

O=C(NCc1ccncc1)c1ccccc1N1CCCN(C(=O)Cc2ccc(F)c(F)c2)CC1
IC50: > 50 µM (inactive) | pIC50 [1]: < 4.30 | pIC50 [2]: < 4.30

Cc1cc2cc(CNc3ccc4c(c3)OCO4)c(=O)n(CCO)c2cc1C
pIC50: 6.30 | pIC50 [1]: 4.40 | pIC50 [2]: 6.60

CC(C)(C)CC(=O)NCc1noc(COc2ccccc2)n1
IC50: > 50 µM (inactive) | pIC50 [1]: < 4.30 | pIC50 [2]: < 4.30

O=C(NCc1ccc(-n2cccc2)cc1)c1nc(Cn2ccc([N+](=O)[O-])n2)no1
IC50: > 50 µM (inactive) | pIC50 [1]: < 4.30 | pIC50 [2]: < 4.30

Cc1ccc(S(=O)(=O)Nc2ccc(CN3CCN(C(=O)c4cccc(C#N)c4)CC3)cc2)cc1
IC50: > 50 µM (inactive) | pIC50 [1]: < 4.30 | pIC50 [2]: 4.60

NCc1csc(Nc2cc(Oc3ccccc3)ncn2)n1
pIC50: 4.60 | pIC50 [1]: < 4.30 | pIC50 [2]: 4.60

COc1ccc(NS(=O)(=O)c2cc(NC(=O)c3ccc([N+](=O)[O-])s3)ccc2OC)cc1
pIC50: 6.10 | pIC50 [1]: 4.89 | pIC50 [2]: 6.10

Cc1nc(-c2nc(NCc3ccc(Cl)cc3)c3cccnc3c2O)n[nH]1
pIC50: 6.30 | pIC50 [1]: 5.20 | pIC50 [2]: 6.30

CN(Cc1nc2c(C(=O)N3CCN(Cc4ccccc4)CC3)cccc2[nH]1)C1CCCc2cccnc21 (stereo not given)
pIC50: 5.89 | pIC50 [1]: 5.00 | pIC50 [2]: 6.10

COc1ccc(-c2nc3ncccc3o2)cc1NC(=O)c1cccs1
IC50: > 50 µM (inactive) | pIC50 [1]: 4.70 | pIC50 [2]: < 4.30

CNC(=O)C1Cc2ccccc2N1C(=O)Cc1ccccc1 (stereo not given)
IC50: > 50 µM (inactive) | pIC50 [1]: < 4.30 | pIC50 [2]: < 4.30

N#Cc1cccc(Nc2nccc(N3CCC(NS(=O)(=O)c4cccc(C#N)c4)CC3)n2)c1
pIC50: 5.00 | pIC50 [1]: < 4.30 | pIC50 [2]: 5.20

Cc1c(C(=O)NCCCCn2ccnc2)oc2c(C)cccc12
IC50: > 50 µM (inactive) | pIC50 [1]: < 4.30 | pIC50 [2]: < 4.30

OCC1CCCCN1c1cc(-c2ccccn2)nc(Nc2ccccc2)n1 (stereo not given)
pIC50: 5.89 | pIC50 [1]: 4.70 | pIC50 [2]: 6.00

CN1CCN(c2nc(-c3ccc(Cl)cc3)c3c(N)n(C)nc3n2)CC1
pIC50: 4.40 | pIC50 [1]: 4.40 | pIC50 [2]: 4.49

Cc1ccc2c(c1)-c1onc(C(=O)N3CCCCC3c3cccnc3)c1CO2 (stereo not given)
IC50: > 50 µM (inactive) | pIC50 [1]: 4.40 | pIC50 [2]: 4.40

Cc1cccnc1CN1CCN(CCCOc2ccc(-c3ccc(C(N)=O)cc3)cc2)CC1
pIC50: 4.49 | pIC50 [1]: 4.89 | pIC50 [2]: 5.00

CC(C)c1cc(Nc2cc(Cc3ccccc3)nc(NC3CCC(O)CC3)n2)n[nH]1 (stereo not given)
pIC50: 7.20 | pIC50 [1]: 7.70 | pIC50 [2]: 7.40

CC(C)Nc1nc(Cl)nc2ccccc12
pIC50: 5.60 | pIC50 [1]: 4.70 | pIC50 [2]: 5.89

O=C(NC1CCN(C2Cc3ccc(NS(=O)(=O)c4cc(F)cc(F)c4)cc3C2)CC1)C1CC1 (stereo not given)
IC50: > 50 µM (inactive) | pIC50 [1]: 4.89 | pIC50 [2]: 4.89

COCc1cc(Nc2cccc(Cl)c2)nc(-c2ccccn2)n1
pIC50: 5.80 | pIC50 [1]: < 4.30 | pIC50 [2]: 6.20

Cc1cc2ncn(-c3ccc([N+](=O)[O-])cc3C#N)c2cc1C
IC50: > 50 µM (inactive) | pIC50 [1]: < 4.30 | pIC50 [2]: < 4.30

CNc1nc(C)nc(N2CCc3cc(C(=O)NCc4ccc(-c5nccn5C)cc4Cl)ccc32)n1
pIC50: 6.10 | pIC50 [1]: 4.60 | pIC50 [2]: 6.10

Fc1ccc(OC2CC(NCc3cccc4cn[nH]c34)C2)cc1C(F)(F)F (stereo not given)
pIC50: 5.10 | pIC50 [1]: 5.00 | pIC50 [2]: 5.10

CC(C)Oc1ccc(C(=O)Nc2ccc(N3CCOCC3)c(Cl)c2)cc1
IC50: > 50 µM (inactive) | pIC50 [1]: < 4.30 | pIC50 [2]: 5.49

COc1cccc(CCNC(=O)C(c2cn[nH]c2)N2CCN(c3ccc(Cl)cc3)CC2)c1 (stereo not given)
pIC50: 4.70 | pIC50 [1]: 4.60 | pIC50 [2]: 5.00

Cc1ccccc1CNc1cc(C2CC2)nc(-c2nccn2C)n1
pIC50: 6.20 | pIC50 [1]: 5.00 | pIC50 [2]: 6.20

O=S(=O)(c1cccc(CSc2nnc(-c3ccc4c(c3)OCO4)o2)c1)N1CCOCC1
pIC50: 6.10 | pIC50 [1]: < 4.30 | pIC50 [2]: 6.60

Clc1cc(Br)ccc1OCCCCn1ccnc1
pIC50: 4.60 | pIC50 [1]: 4.49 | pIC50 [2]: 5.20

Cc1cc(N(C)C)nc2ccc(Cc3cnc(N)nc3N)cc12
pIC50: 4.49 | pIC50 [1]: 4.40 | pIC50 [2]: 4.40

Nc1nonc1-c1nc2cncc(C(=O)N3CC[C@H](N)C3)c2n1CC1CC1
pIC50: 4.70 | pIC50 [1]: 4.89 | pIC50 [2]: 4.40

Cc1ccc2ccc(C(Nc3ccccn3)c3cccnc3)c(O)c2n1 (stereo not given)
pIC50: 4.89 | pIC50 [1]: < 4.30 | pIC50 [2]: 5.10

CCC(=O)Nc1ccccc1C(=O)Nc1ccccn1
IC50: > 50 µM (inactive) | pIC50 [1]: < 4.30 | pIC50 [2]: < 4.30

O=C1NCc2cccc(Nc3nc(NC4CCC(O)CC4)ncc3Br)c21 (stereo not given)
pIC50: 6.80 | pIC50 [1]: 7.00 | pIC50 [2]: 6.89

N#Cc1cccc(CNc2ccc(-c3cnn(CC4CC4)c(=O)c3C#N)cc2)c1
pIC50: 5.89 | pIC50 [1]: 5.20 | pIC50 [2]: 6.60

CC1(C)CCC(=Cc2ccc(Cl)cc2)CC1(O)Cn1ccnc1 (stereo not given)
pIC50: 5.10 | pIC50 [1]: 4.89 | pIC50 [2]: 5.70

COc1ccc2ncc(F)c(CCN3CC[C@@H](NC(=O)c4cc5c(s4)CCC5)[C@@H](O)C3)c2n1
pIC50: 5.20 | pIC50 [1]: 4.60 | pIC50 [2]: 5.89

OC1CCC(Nc2nccc(-c3sc(C4CCOCC4)nc3-c3ccc(F)c(F)c3)n2)CC1 (stereo not given)
pIC50: 5.30 | pIC50 [1]: 4.70 | pIC50 [2]: 5.60

CC(=O)Nc1ccc(-c2ccnc(Nc3cccc(C#N)c3)n2)cc1
pIC50: 4.80 | pIC50 [1]: 5.00 | pIC50 [2]: 5.00

CCn1nccc1CN(C)C(=O)C=Cc1ccc(Cl)cc1
IC50: > 50 µM (inactive) | pIC50 [1]: < 4.30 | pIC50 [2]: < 4.30

O=C1CN(C(=O)c2cccc(Nc3ncc(-c4ccc5c(c4)OCO5)cn3)c2)CCN1
pIC50: 5.30 | pIC50 [1]: 4.20 | pIC50 [2]: 5.70

O=C(N1CCc2ccccc2CC1)C1(C(=O)N2CCC(n3c(=O)[nH]c4ncccc43)CC2)CC1
IC50: > 50 µM (inactive) | pIC50 [1]: < 4.30 | pIC50 [2]: < 4.30

COc1cccc(Nc2cc(C)nc(-c3ccccn3)n2)c1
pIC50: 5.70 | pIC50 [1]: < 4.30 | pIC50 [2]: 5.89

Cc1c(CNC(=O)c2ccc(Cn3cc(Cl)c([N+](=O)[O-])n3)cc2)cnn1C
IC50: > 50 µM (inactive) | pIC50 [1]: < 4.30 | pIC50 [2]: < 4.30

COc1ncc(-c2ccc3nccc(-c4ccncc4)c3c2)cc1NS(C)(=O)=O
pIC50: 5.60 | pIC50 [1]: 5.49 | pIC50 [2]: 6.20

CCN(CC)c1nc(N(C)C)nc2c1CN(Cc1ccccc1)CC2
pIC50: 5.20 | pIC50 [1]: 4.40 | pIC50 [2]: 5.40

Fc1ccc(Nc2nc(-c3ccccn3)cs2)cc1
pIC50: 5.00 | pIC50 [1]: < 4.30 | pIC50 [2]: 5.20

COc1ccc(-c2cc(C)no2)cc1S(=O)(=O)Nc1ccc(F)c(Cl)c1
pIC50: 4.60 | pIC50 [1]: 4.49 | pIC50 [2]: 4.70

Cc1nc(-c2ccc3c(c2)OCO3)sc1C(=O)NCc1ccc2c(c1)OCO2
pIC50: 6.60 | pIC50 [1]: < 4.30 | pIC50 [2]: 6.10

COc1ccc(Nc2nc(-c3ccccn3)cs2)c(OC)c1
pIC50: 5.60 | pIC50 [1]: < 4.30 | pIC50 [2]: 5.70

O=C1OCc2ccc(Nc3nccc(-c4cnn5ncccc45)n3)cc21
pIC50: 7.80 | pIC50 [1]: 8.10 | pIC50 [2]: 7.89

NC(=O)c1ncccc1Nc1nc(NC2CCC(O)CC2)ncc1Br (stereo not given)
pIC50: 5.89 | pIC50 [1]: 6.40 | pIC50 [2]: 6.20

Nc1nc(-c2ccccc2)cc(-c2nc3ncccc3[nH]2)n1
pIC50: 5.60 | pIC50 [1]: < 4.30 | pIC50 [2]: 5.60

CC(C)(C)c1cc(NC2CC2)nc(-c2ccccn2)n1
pIC50: 5.60 | pIC50 [1]: 4.60 | pIC50 [2]: 5.80

CCc1cccc(-n2nc(OCC(=O)NC3CCCC3)c3cccnc32)c1
pIC50: 6.00 | pIC50 [1]: > 4.30 | pIC50 [2]: 5.89

CCc1cc(C(=O)Nc2nccn2-c2ccccc2)cs1
pIC50: 4.89 | pIC50 [1]: 4.49 | pIC50 [2]: 5.30

CC(CCc1ccccc1)NC(=O)CN(Cc1ccccn1)Cc1ccccn1 (stereo not given)
pIC50: 5.49 | pIC50 [1]: 4.70 | pIC50 [2]: 5.49

COc1ccc(CN(C)Cc2ccncc2)cc1-c1ccc(S(=O)(=O)NC2CCC2)s1
IC50: > 50 µM (inactive) | pIC50 [1]: 4.70 | pIC50 [2]: 4.80

Nc1cc(-c2ccc3ncnc(N4CCOCC4)c3c2)cnc1N
pIC50: 5.00 | pIC50 [1]: < 4.30 | pIC50 [2]: 5.89

CCOc1ccc(OCC(=O)N2c3ccccc3CC2C(=O)NC)cc1 (stereo not given)
IC50: > 50 µM (inactive) | pIC50 [1]: < 4.30 | pIC50 [2]: < 4.30

CC1(Oc2cncc(Cl)c2)CCN(Cc2cc3ccccc3[nH]2)C1 (stereo not given)
pIC50: 4.70 | pIC50 [1]: 4.49 | pIC50 [2]: 4.49

O=C(CN1CCN(c2ccccn2)CC1)Nc1cc(S(=O)(=O)N2CCCCCC2)ccc1Cl
pIC50: 5.20 | pIC50 [1]: 4.30 | pIC50 [2]: 5.89

C[C@@H](Oc1cc(-n2cnc3ccc(O[C@H]4CCNC4)cc32)sc1C(N)=O)c1ccccc1Cl
pIC50: 5.10 | pIC50 [1]: 5.20 | pIC50 [2]: 5.30

Cc1ccc(CNC2CCN(C[C@@H]3Cn4c(=O)ccc5ccc(=O)n3c54)CC2)cc1F
IC50: > 50 µM (inactive) | pIC50 [1]: < 4.30 | pIC50 [2]: < 4.30

COc1ccc2ncc(=O)n(CCN3CCC(NCc4ccc(-c5cccs5)cc4)CC3)c2n1
pIC50: 5.49 | pIC50 [1]: 5.00 | pIC50 [2]: 5.89

COc1ccc(OC)c(S(=O)(=O)N(Cc2c(F)cccc2F)[C@@H]2CCN(C#N)C2)c1
pIC50: 4.60 | pIC50 [1]: 4.70 | pIC50 [2]: 4.70

COc1ccc2ncc(Cl)c(CCN3CC[C@@H](NCc4cc5c(cn4)OCS5)[C@H](O)C3)c2n1
pIC50: 4.89 | pIC50 [1]: 4.60 | pIC50 [2]: 5.10

Source: PubChem BioAssay AID1159564 (GlaxoSmithKline (GSK), 2015)
